According to article PMC6778101 (Nature Communications, 2019):
Where two headings read alike, the source gives them in different places. Ends that are not written are not given here.

Key:
Format in all cases: cell-based, Escherichia coli
E. coli K-12 BW25113 [1] = experiment: microbe, parasite or virus in culture
Text: Unless otherwise indicated, Minimal Salt (MS) medium was used in all experiments, including the laboratory evolution experiments. In line with previous, methodologically relevant laboratory evolution studies, the physical conditions (including the medium) were the same during the course of laboratory evolution and all forthcoming assays on the resulting resistant lines (e.g. MIC measurements). We previously optimized this medium for studying AMPs (1 g L^−1 (NH4)2SO4, 3 g L^−1 KH2PO4 and 7 g L^−1 K2HPO4 supplemented with 0.1 mM MgSO4, 0.54 µg mL^−1 FeCl3, 1 µg mL^−1 thiamine hydrochloride, 0.2% Casamino acids and 0.2% glucose)[19]. This medium is highly controlled and provides a reproducible environment for experimental evolution experiments. All components were obtained from Sigma-Aldrich.
MICs were determined using a standard serial broth dilution technique. Briefly, 11-step serial dilutions were prepared in 96-well microtiter plates with three replicates per strain and antimicrobial compound. Each experiment was repeated at least twice. 5 × 10^5 cells/mL were inoculated into each well, and the plates were incubated at 30 °C in case of E. coli K-12 BW25113, and its antibiotic and AMP-adapted lines, or 37 °C in case of the other bacterial species. […] Cell growth was monitored by measuring the optical density (OD600 value, Biotek Synergy 2 microplate reader was used for this purpose). […] Relative MIC was calculated as follows: MICrelative = MICevolved/MICcontrol.

E. coli K-12 BW25113 [2] = experiment: Laboratory evolution of resistance, MIC fold change of adapted lines; settings: ~120 generations under increasing drug concentration
Text: Our first goal was to study resistance evolution against a set of AMPs and antibiotics. We have followed established protocols with minor modifications to evolve bacterial populations under controlled laboratory conditions[19],[20]. The applied protocol aims to maximize the level of drug resistance in the evolving populations achieved during a fixed time period. We have initiated a laboratory evolution experiment, starting with a single clone of Escherichia coli K-12 BW25113 (abbreviated as E. coli K-12 BW25113). Parallel evolving populations were exposed to increasing concentrations of one of 14 AMPs (Supplementary Table 1). Peptides were chosen based on the following criteria: diverse sources (synthetic/natural), different putative mechanisms of action, structural diversity, and clinical relevance. Another set of populations were exposed to one of 12 clinically relevant antibiotics (Supplementary Table 2), using the same protocol. Accordingly, we have propagated 10 independent populations in the presence of each AMP or antibiotic for ∼120 generations. We isolated a single, representative clone from each population, resulting in 140 AMP-adapted lines and 120 antibiotic-adapted lines. Throughout the paper, we compare the level of resistance in the evolved lines to the corresponding wild-type strain by measuring changes in the drugs’ minimum inhibitory concentrations (MIC).
The evolutionary protocol was designed to avoid population extinction and to ensure that populations with the highest level of resistance were propagated further. Starting with a subinhibitory drug concentration (Supplementary Data 8), resulting in ~50% growth inhibition, 10 parallel populations per drug were allowed to grow in Minimal Salts medium for 72 h and 300 r.p.m. E. coli K-12 BW25113 and E. coli mutD5 populations were incubated at 30 °C, while E. coli ATCC 25922, S. enterica LT2, K. pneumonia ATCC 10031, and A. baumannii ATCC 17978 were incubated at 37 °C. […] Prior to each transfer, cell growth was monitored by measuring the optical density at 600 nm (OD600 value, Biotek Synergy 2 microplate reader). Only populations with the highest drug concentration (and reaching OD600 > 0.2) were selected for further evolution. A chess-board layout was used on the plate to monitor potential cross-contamination events. […] E. coli mutD5 was adapted to TPII, also in 10 parallel evolving populations.
MICs were determined using a standard serial broth dilution technique. Briefly, 11-step serial dilutions were prepared in 96-well microtiter plates with three replicates per strain and antimicrobial compound. Each experiment was repeated at least twice. 5 × 10^5 cells/mL were inoculated into each well, and the plates were incubated at 30 °C in case of E. coli K-12 BW25113, and its antibiotic and AMP-adapted lines, or 37 °C in case of the other bacterial species. Plates were shaken at 300 r.p.m. during incubation for 24 and 18 h, respectively. Cell growth was monitored by measuring the optical density (OD600 value, Biotek Synergy 2 microplate reader was used for this purpose). […] Relative MIC was calculated as follows: MICrelative = MICevolved/MICcontrol.

[3] = test system: E. coli K-12 BW25113 carrying ASKA plasmids; experiment: microbe, parasite or virus in culture; settings: MS medium + 10 µg mL−1 CHL + 500 µM IPTG, 5 × 10^5 cells, 16–18 h, 37 °C; for MIC: Escherichia coli
Text: Bacterial gene amplification generates extensive genetic variation that can provide drug resistance[37],[38]. As gene amplification events tend to be genetically unstable and reduce bacterial fitness, they are transient in nature. Using the ASKA library, which comprises each E. coli ORF cloned into an expression vector[40], we have conducted a global survey to evaluate whether artificially amplified genes provide resistance to any of the 14 AMPs and 11 antibiotics tested. As chloramphenicol (CHL) was used as a selection marker for the ASKA plasmid, this antibiotic was not tested in this screen. E. coli K-12 BW25113 cells were transformed with the pooled plasmids of the ASKA library, and the genetically mixed populations were exposed to increasing levels of AMP or antibiotic stresses, respectively. In all cases, the employed AMP or antibiotic dosages were above the MIC of the wild type. For each drug, we identified the MIC provided in the pooled ASKA plasmid library, and compared it to the MIC of the wild-type strain carrying the empty ASKA plasmid.
The ASKA library (a complete set of E. coli K-12 ORF archive) includes every E. coli ORF cloned into an expression vector (pCA24N)[65]. Prior to screening, the ASKA plasmid collection was pooled and transformed into E. coli K-12 BW25113 strain[66]. The plasmid pool was created by pooling an equal aliquot of cells, each carrying different members of the ASKA library, followed by plasmid miniprep. Next, the plasmid pool was electroporated into E. coli K-12 BW25113 competent cells. […] For the MICs measurements 500 000 cells were inoculated in each well which represents ~100 times coverage of each library member. […] Prior to the measurements the cell population containing the pooled overexpression library or the control strain containing the empty vector were grown in three replicates in LB medium supplemented with 20 µg/mL CHL. As the culture reached high density (i.e., OD600 > 0.8), expression of the plasmid was induced by 50 µM IPTG for 1 h. Following induction, 5 × 10^5 bacterial cells were inoculated in three replicates into each well of the 96-well plate and incubated for 16–18 h at 37 °C. Following incubation the MIC values were determined by measuring optical densities in a plate reader (Biotek Synergy).

[4] = starting wild-type strain of the evolution experiment, broth dilution, MS medium, 5 × 10^5 cells/mL, 30 °C, 24 h, MIC = OD600 < 0.05
[5] = Escherichia coli, BW25113, 24 h, read-out: MIC
[6] = BW25113, Replicate 1, read-out: MIC value of E. coli K-12 BW25113 carrying the empty plasmid of the ASKA library
[7] = BW25113, Replicate 1, read-out: MIC value of E. coli K-12 BW25113 carrying the pooled plasmids of the ASKA library
[8] = BW25113, Replicate 2, read-out: MIC value of E. coli K-12 BW25113 carrying the empty plasmid of the ASKA library
[9] = BW25113, Replicate 2, read-out: MIC value of E. coli K-12 BW25113 carrying the pooled plasmids of the ASKA library
[10] = BW25113, Replicate 3, read-out: MIC value of E. coli K-12 BW25113 carrying the empty plasmid of the ASKA library
[11] = BW25113, Replicate 3, read-out: MIC value of E. coli K-12 BW25113 carrying the pooled plasmids of the ASKA library

Compound	MIC (E. coli K-12 BW25113 [1]; [4])	resistance in evolved lines after laboratory evolution (in words) (E. coli K-12 BW25113 [2])	MIC value of E. coli K-12 BW25113 carrying the empty plasmid of the ASKA library ([3]; Replicate 1)	MIC value of E. coli K-12 BW25113 carrying the pooled plasmids of the ASKA library ([3]; Replicate 1)	MIC value of E. coli K-12 BW25113 carrying the empty plasmid of the ASKA library ([3]; Replicate 2)	MIC value of E. coli K-12 BW25113 carrying the pooled plasmids of the ASKA library ([3]; Replicate 2)	MIC value of E. coli K-12 BW25113 carrying the empty plasmid of the ASKA library ([3]; Replicate 3)	MIC value of E. coli K-12 BW25113 carrying the pooled plasmids of the ASKA library ([3]; Replicate 3)	MIC (E. coli K-12 BW25113 [1]; [5])	MIC [3, 6]	MIC [3, 7]	MIC [3, 8]	MIC [3, 9]	MIC [3, 10]	MIC [3, 11]	MIC (E. coli K-12 BW25113 [1]; Escherichia coli, BW25113, 24 h)
TSSPPAAVVVRRRRRRRRRRRRRRRRRRR [PROA, protamine, cationic AMP purchased from Sigma-Aldrich]	310 µg/mL	isolated resistant mutants	126.51 µg/mL	126.51 µg/mL	126.51 µg/mL	36.15 µg/mL	442.78 µg/mL	442.78 µg/mL	–	–	–	–	–	–	–	–
GLRKRLRKFRNKIKEKLKKIGQKIQGFVPKLAPRTDY [CAP18, rabbit CAP18]	120 µg/mL	–	24.11 µg/mL	24.11 µg/mL	20.09 µg/mL	24.11 µg/mL	24.11 µg/mL	24.11 µg/mL	–	–	–	–	–	–	–	–
C[C@H]1c2cccc(O)c2C(=O)C2=C(O)[C@]3(O)C(=O)C(C(N)=O)=C(O)[C@@H](N(C)C)[C@@H]3[C@@H](O)[C@@H]21 [DOX, Doxycycline]	–	–	–	–	–	–	–	–	1.5 µg/mL	0.56 µg/mL	1.59 µg/mL	0.43 µg/mL	1.59 µg/mL	0.56 µg/mL	1.59 µg/mL	–
O=C1CN(/N=C/c2ccc([N+](=O)[O-])o2)C(=O)N1 [NIT, Nitrofurantoin]	–	–	–	–	–	–	–	–	–	6.53 µg/mL	14.7 µg/mL	6.53 µg/mL	14.7 µg/mL	6.53 µg/mL	6.53 µg/mL	35 µg/mL
CC[C@H]1OC(=O)[C@H](C)[C@@H](O[C@H]2C[C@@](C)(OC)[C@@H](O)[C@H](C)O2)[C@H](C)[C@@H](O[C@@H]2O[C@H](C)C[C@H](N(C)C)[C@H]2O)[C@](C)(O)C[C@@H](C)C(=O)[C@H](C)[C@@H](O)[C@]1(C)O [ERY, Erythromycin]	–	–	–	–	–	–	–	–	–	11 µg/mL	18.6 µg/mL	14.3 µg/mL	24.1 µg/mL	14.3 µg/mL	24.1 µg/mL	–
CO[C@@]1(NC(=O)Cc2cccs2)C(=O)N2C(C(=O)O)=C(COC(N)=O)CS[C@@H]21 [FOX, Cefoxitin]	–	–	–	–	–	–	–	–	4.9 µg/mL	6.07 µg/mL	69.2 µg/mL	6.07 µg/mL	69.2 µg/mL	6.07 µg/mL	69.2 µg/mL	–
CN(C)[C@@H]1C(O)=C(C(N)=O)C(=O)[C@@]2(O)C(O)=C3C(=O)c4c(O)cccc4[C@@](C)(O)[C@H]3C[C@@H]12 [TET, Tetracycline]	–	–	–	–	–	–	–	–	1.2 µg/mL	0.62 µg/mL	1.29 µg/mL	0.62 µg/mL	1.07 µg/mL	0.62 µg/mL	1.07 µg/mL	–
RRRPRPPYLPRPRPPPFFPPRLPPRIPPGFPPRFPPRFP [PR39]	5 µg/mL	–	5.79 µg/mL	5.79 µg/mL	5.79 µg/mL	5.79 µg/mL	5.79 µg/mL	5.79 µg/mL	–	–	–	–	–	–	–	–
FLGKVFKLASKVFKAVFGKV [R8]	20 µg/mL	–	11.57 µg/mL	11.57 µg/mL	11.57 µg/mL	11.57 µg/mL	11.57 µg/mL	9.46 µg/mL	–	–	–	–	–	–	–	–
CCn1cc(C(=O)O)c(=O)c2ccc(C)nc21 [NAL, Nalidixic acid]	–	–	–	–	–	–	–	–	6.35 µg/mL	0.37 µg/mL	1.05 µg/mL	0.37 µg/mL	1.05 µg/mL	0.37 µg/mL	1.05 µg/mL	–
